# ± gives the expanded uncertainty stated by the source.
# Test: excess molar enthalpy (molar enthalpy of mixing); xn = mol fraction of the nth substance listed
# Details: 101.3 kPa, Liquid, Flow calorimetry
structure (smiles),measurement,setting,value
CCCCO [butan-1-ol] + CCCCCCC,excess molar enthalpy,"298.15 K, x2 = 0.0502",0.0176 ± 0.000741 kcal/mol
same,excess molar enthalpy,"298.15 K, x2 = 0.0999",0.0352 ± 0.00098 kcal/mol
same,excess molar enthalpy,"298.15 K, x2 = 0.1504",0.0519 ± 0.00129 kcal/mol
same,excess molar enthalpy,"298.15 K, x2 = 0.2",0.0674 ± 0.00158 kcal/mol
same,excess molar enthalpy,"298.15 K, x2 = 0.2498",0.0823 ± 0.00186 kcal/mol
same,excess molar enthalpy,"298.15 K, x2 = 0.2998",0.096 ± 0.00215 kcal/mol
same,excess molar enthalpy,"298.15 K, x2 = 0.3497",0.108 ± 0.00239 kcal/mol
same,excess molar enthalpy,"298.15 K, x2 = 0.4004",0.119 ± 0.00263 kcal/mol
same,excess molar enthalpy,"298.15 K, x2 = 0.4496",0.129 ± 0.00287 kcal/mol
same,excess molar enthalpy,"298.15 K, x2 = 0.5001",0.137 ± 0.00311 kcal/mol
same,excess molar enthalpy,"298.15 K, x2 = 0.5498",0.144 ± 0.00311 kcal/mol
same,excess molar enthalpy,"298.15 K, x2 = 0.5996",0.148 ± 0.00311 kcal/mol
same,excess molar enthalpy,"298.15 K, x2 = 0.6504",0.149 ± 0.00311 kcal/mol
same,excess molar enthalpy,"298.15 K, x2 = 0.6999",0.147 ± 0.00311 kcal/mol
same,excess molar enthalpy,"298.15 K, x2 = 0.7501",0.143 ± 0.00311 kcal/mol
same,excess molar enthalpy,"298.15 K, x2 = 0.7998",0.135 ± 0.00287 kcal/mol
same,excess molar enthalpy,"298.15 K, x2 = 0.8502",0.125 ± 0.00263 kcal/mol
same,excess molar enthalpy,"298.15 K, x2 = 0.8998",0.11 ± 0.00239 kcal/mol
same,excess molar enthalpy,"298.15 K, x2 = 0.9497",0.0863 ± 0.00203 kcal/mol
same,excess molar enthalpy,"313.15 K, x2 = 0.0502",0.0246 ± 0.00098 kcal/mol
same,excess molar enthalpy,"313.15 K, x2 = 0.1",0.049 ± 0.00134 kcal/mol
same,excess molar enthalpy,"313.15 K, x2 = 0.1505",0.0727 ± 0.00177 kcal/mol
same,excess molar enthalpy,"313.15 K, x2 = 0.2001",0.0944 ± 0.00217 kcal/mol
same,excess molar enthalpy,"313.15 K, x2 = 0.2499",0.115 ± 0.00263 kcal/mol
same,excess molar enthalpy,"313.15 K, x2 = 0.2999",0.134 ± 0.00287 kcal/mol
same,excess molar enthalpy,"313.15 K, x2 = 0.3498",0.151 ± 0.00335 kcal/mol
same,excess molar enthalpy,"313.15 K, x2 = 0.4004",0.166 ± 0.00359 kcal/mol
same,excess molar enthalpy,"313.15 K, x2 = 0.4496",0.179 ± 0.00382 kcal/mol
same,excess molar enthalpy,"313.15 K, x2 = 0.5002",0.19 ± 0.00406 kcal/mol
same,excess molar enthalpy,"313.15 K, x2 = 0.5499",0.198 ± 0.0043 kcal/mol
same,excess molar enthalpy,"313.15 K, x2 = 0.5997",0.202 ± 0.0043 kcal/mol
same,excess molar enthalpy,"313.15 K, x2 = 0.6505",0.204 ± 0.0043 kcal/mol
same,excess molar enthalpy,"313.15 K, x2 = 0.6999",0.202 ± 0.0043 kcal/mol
same,excess molar enthalpy,"313.15 K, x2 = 0.7501",0.197 ± 0.0043 kcal/mol
same,excess molar enthalpy,"313.15 K, x2 = 0.7998",0.189 ± 0.00406 kcal/mol
same,excess molar enthalpy,"313.15 K, x2 = 0.8502",0.175 ± 0.00382 kcal/mol
same,excess molar enthalpy,"313.15 K, x2 = 0.8997",0.155 ± 0.00359 kcal/mol
same,excess molar enthalpy,"313.15 K, x2 = 0.9497",0.121 ± 0.00287 kcal/mol

# Source: the NIST ThermoML archive (doi:10.1016/j.jct.2009.07.014)
